# Assay results from patent publication US7560453B2, “6-(2, 3, 4, 5-tetrahydro-1H-benzo [D] azepin-7-yloxy) -nicotamide derivatives as radio labelled ligands” (Glaxo Group Limited, priority 2005, dated 2009).
# Experiments:
# histamine H3 receptor [1] = assay: PET imaging with pharmacological challenges (blocking of Compound A uptake); assay type: in vivo, pig
# Procedure: Four sequential high specific activity iv radioligand Compound A administrations were performed in same animal, same day. Following a baseline scan, Compound A was co-administered with escalating dose of unlabelled unlabelled compound A (0.005, 0.05 and 0.5 mg/kg). [^15O]CO and [^15O]H2O were administered pre and post administration of unlabelled compound A to monitor and to correct for changes in cerebral blood volume and changes in cerebral blood flow. […] A similar experiment was performed using escalating dose of ciproxifan (0.006, 0.06, 0.6 and 2.0 mg/kg), a known selective histamine H3 antagonist.
# [2] = target: T1, human histamine H3 receptor (Homo sapiens, UniProt Q9Y5N1); assay: Competition binding assay using [125I]iodoproxifan, cell lines stably expressing human histamine H3 receptor
# T1 construct: expressed in transfected cells
# T1 sequence (Q9Y5N1 whole entry): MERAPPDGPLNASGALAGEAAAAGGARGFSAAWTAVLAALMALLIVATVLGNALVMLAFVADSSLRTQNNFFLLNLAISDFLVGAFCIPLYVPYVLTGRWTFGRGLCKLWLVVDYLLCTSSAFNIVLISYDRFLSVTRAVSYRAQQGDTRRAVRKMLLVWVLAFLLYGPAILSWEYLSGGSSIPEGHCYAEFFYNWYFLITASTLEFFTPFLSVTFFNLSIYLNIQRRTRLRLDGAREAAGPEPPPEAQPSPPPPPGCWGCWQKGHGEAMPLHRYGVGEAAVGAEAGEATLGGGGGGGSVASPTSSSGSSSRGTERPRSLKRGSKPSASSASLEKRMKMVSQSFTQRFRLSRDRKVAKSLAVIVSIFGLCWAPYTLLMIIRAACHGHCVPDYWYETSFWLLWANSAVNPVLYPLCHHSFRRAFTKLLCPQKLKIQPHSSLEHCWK
# Procedure: The in vitro affinity of unlabelled Compound A for the histamine H3 receptor was determined by competition assay using [^125I]iodoproxifan as radioligand binding to cell lines stably expressing human histamine H3 receptor.^13
# Human receptor H4 = Human receptor H4 (Homo sapiens, UniProt Q9H3N8); assay: Binding affinity, human H4 receptor; conditions: read-out: Binding affinity (pKi), human H4 (converted)
# Chain of Human receptor H4 (Q9H3N8 whole entry): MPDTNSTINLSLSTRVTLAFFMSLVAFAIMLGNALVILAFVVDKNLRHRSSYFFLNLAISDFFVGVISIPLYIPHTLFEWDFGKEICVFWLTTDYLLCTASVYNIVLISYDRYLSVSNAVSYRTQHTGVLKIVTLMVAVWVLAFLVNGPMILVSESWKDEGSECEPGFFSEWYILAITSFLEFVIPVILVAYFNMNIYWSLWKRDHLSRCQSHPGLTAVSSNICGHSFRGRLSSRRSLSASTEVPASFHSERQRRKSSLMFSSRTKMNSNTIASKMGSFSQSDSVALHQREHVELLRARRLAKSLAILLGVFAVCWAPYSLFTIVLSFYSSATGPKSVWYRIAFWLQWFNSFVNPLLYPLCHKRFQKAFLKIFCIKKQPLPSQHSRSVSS
# Human receptor H2 = Human receptor H2 (Homo sapiens, UniProt P25021); assay: Binding affinity, human H2 receptor; conditions: read-out: Binding affinity (pKi), human H2 (converted)
# Chain of Human receptor H2 (P25021 whole entry): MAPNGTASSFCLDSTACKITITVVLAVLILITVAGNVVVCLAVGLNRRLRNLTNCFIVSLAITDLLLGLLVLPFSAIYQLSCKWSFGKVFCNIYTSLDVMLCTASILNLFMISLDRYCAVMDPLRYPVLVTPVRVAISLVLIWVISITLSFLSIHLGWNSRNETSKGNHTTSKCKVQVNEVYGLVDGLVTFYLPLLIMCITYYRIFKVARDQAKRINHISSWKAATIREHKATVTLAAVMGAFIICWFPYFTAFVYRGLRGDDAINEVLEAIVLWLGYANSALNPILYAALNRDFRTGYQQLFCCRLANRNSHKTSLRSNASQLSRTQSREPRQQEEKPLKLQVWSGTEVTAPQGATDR
# Human receptor H1 = Human receptor H1 (Homo sapiens, UniProt P35367); assay: Binding affinity, human H1 receptor; conditions: read-out: Binding affinity (pKi), human H1 (converted)
# Chain of Human receptor H1 (P35367 whole entry): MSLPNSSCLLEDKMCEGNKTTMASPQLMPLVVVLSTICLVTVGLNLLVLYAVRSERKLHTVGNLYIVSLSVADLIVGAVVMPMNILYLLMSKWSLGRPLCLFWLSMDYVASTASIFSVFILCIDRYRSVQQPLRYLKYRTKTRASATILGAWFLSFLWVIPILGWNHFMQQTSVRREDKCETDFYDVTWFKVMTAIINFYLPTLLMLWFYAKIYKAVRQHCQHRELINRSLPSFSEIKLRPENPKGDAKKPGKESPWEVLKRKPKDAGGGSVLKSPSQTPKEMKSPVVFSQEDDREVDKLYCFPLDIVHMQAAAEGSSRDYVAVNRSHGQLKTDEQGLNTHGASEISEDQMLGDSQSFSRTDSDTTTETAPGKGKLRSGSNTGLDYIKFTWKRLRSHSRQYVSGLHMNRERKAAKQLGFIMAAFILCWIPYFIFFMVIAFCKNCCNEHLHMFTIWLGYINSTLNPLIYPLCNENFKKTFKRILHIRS
# histamine H3 receptors = conditions: prior art radioligands; cited from earlier work
# histamine H3 receptor [3] = assay: PET imaging with Compound A in pig brain; assay type: in vivo
# Procedure: The animals (pig, Yorkshire/Danish Landrace (˜40 Kg; n=2) were housed singly in thermostatically controlled (20° C.) and naturally illuminated stalls. They were scanned under terminal anaesthesia (ketamine induced isoflurane anaesthesia) on different days. The left femoral artery and vein of each animal were surgically cannulated using catheters (Avanti® size 4F-7F). Blood samples were collected from the femoral artery and the radiolabelled and non-labelled agents were injected to the femoral vein. Animals were placed supine in a Siemens ECAT EXACT HR tomograph, with the head immobilized in a custom-made holding device. During the study, blood pH, pCO2 and pO2 levels were monitored and maintained within the normal physiological range. In addition, BP and heart rate were recorded throughout the study. Compound A was administered intravenously in the femoral vein as a 1 minute bolus injection. PET scanning and arterial blood sampling was commenced upon start of the radioligand administration.
# [4] = 2.0 mg/kg ciproxifan, 85 min post-injection
structure (smiles),measurement,setting,value
O=C(c1ccc(OCCCc2cnc[nH]2)cc1)C1CC1 [ciproxifan],"Ratio tissue to cerebellum of Compound A, frontal cortex",histamine H3 receptor [1]; [4],1.08
same,"Ratio tissue to cerebellum of Compound A, occipital cortex",histamine H3 receptor [1]; [4],0.99
same,"Ratio tissue to cerebellum of Compound A, parietal cortex",histamine H3 receptor [1]; [4],0.91
same,"Ratio tissue to cerebellum of Compound A, striatum",histamine H3 receptor [1]; [4],1.22
same,"Ratio tissue to cerebellum of Compound A, thalamus",histamine H3 receptor [1]; [4],0.72
same,Effect on Compound A uptake in H3-rich brain regions,"histamine H3 receptor [1]; escalating dose 0.006, 0.06, 0.6 and 2.0 mg/kg",dose-dependent decrease
CNC(=O)c1ccc(Oc2ccc3c(c2)CCN(C2CCC2)CC3)nc1 [unlabelled Compound A],Selectivity over other receptors,[2]; H3 versus other receptors,high selective over other receptors
same,Ki,"[2]; [125I]iodoproxifan as radioligand, read-out: Binding affinity (pKi), human H3 (converted)",0.257 nM
same,Ki,Human receptor H4,> 3160 nM
same,Effect on specific uptake of radiotracer Compound A,"histamine H3 receptor [1]; co-administered at 0.005, 0.05 and 0.5 mg/kg",specific uptake of radiotracer was blocked
same,Ki,Human receptor H2,> 3160 nM
same,Ki,Human receptor H1,2510 nM
[123I]c1ccc(COCCCc2cnc[nH]2)cc1 [[^123I]iodoproxifan],Alteration of brain distribution by selective H3 receptor ligand,histamine H3 receptors,no significant alteration of the brain distribution by selective H3 receptor ligand
"[11CH3]NC(=O)c1ccc(Oc2ccc3c(c2)CCN(C2CCC2)CC3)nc1 [Compound A, [^11C-N-methyl]-6-(3-cyclobutyl-2,3,4,5-tetrahydro-1H-benzo[d]azepin-7-yloxy)-nicotamide]",Concentration in cerebellum,histamine H3 receptor [3],low
same,"Ratio relative to cerebellum, frontal cortex","histamine H3 receptor [3]; 85 min, baseline",5.3
same,"Ratio relative to cerebellum, occipital cortex","histamine H3 receptor [3]; 85 min, baseline",3.8
same,"Ratio relative to cerebellum, parietal cortex","histamine H3 receptor [3]; 85 min, baseline",4.9
same,"Ratio relative to cerebellum, striatum","histamine H3 receptor [3]; 85 min, baseline",9.0
same,"Ratio relative to cerebellum, thalamus","histamine H3 receptor [3]; 85 min, baseline",3.4
same,Time of peak brain uptake of radioactivity,histamine H3 receptor [3]; after administration of the radiotracer,25 min
same,Regional brain distribution,"histamine H3 receptor [3]; higher accumulation in striatum, cortices, thalamus, hypothalamus",reflected the known distribution of the histamine H3 receptor
same,Brain entry,histamine H3 receptor [3]; iv 1 minute bolus,readily enters the pig brain
